Data set [1] can be described thus: Antiproliferative activity against human A549 cells after 48 hrs by SRB assay. The data set is classed as functional, cell-based. Particulars: A549, 48 h. (In SRB staining, fixed cells bind dye roughly in proportion to their protein.)
Data set [2] relates to Mus musculus. Briefly: Acute toxicity in Swiss albino mouse assessed as serum SGOT level at 5 mg/kg, po qd administered as single dose for 7 days (reference value: 34.32 +/- 3.78 U/L). The data set is classed as organism-based. Particulars: in vivo, 168 h.
For a further data set, the system named is FaDu. The experiment in a line: Induction of apoptosis in human FADU cells at 10 uM by propidium iodide staining based flow cytometry. Type of data set: functional, cell-based. In general terms: In flow cytometry, cells or beads pass a laser one at a time.
The test system of data set [3] is Mus musculus. The experiment in a line: Acute toxicity in Swiss albino mouse assessed as body weight at 1000 mg/kg, po qd administered as single dose for 7 days (reference value: 27.73 +/- 0.94 g). Type of data set: organism-based. The note with it: in vivo, 168 h.
Data set [4] relates to Mus musculus. Briefly: Acute toxicity in Swiss albino mouse assessed as serum RBC level at 300 mg/kg, po qd administered as single dose for 7 days (reference value: 9.07 +/- 1.13 million/mm3). Type of data set: organism-based. The note with it: in vivo, 168 h.
The test system of data set [5] is Mus musculus. The experiment in a line: Acute toxicity in Swiss albino mouse assessed as serum creatinine level at 1000 mg/kg, po qd administered as single dose for 7 days (reference value: 0.09 +/- 0.01 mg/dl). The data set is classed as organism-based. The note with it: in vivo, 168 h.
The subject of data set [6] is Mus musculus. The experiment in a line: Acute toxicity in Swiss albino mouse assessed as serum protein level at 300 mg/kg, po qd administered as single dose for 7 days (reference value: 2.91 +/- 0.31 mg/ml). The data set is classed as organism-based. Particulars: in vivo, 168 h.

Calls of active or inactive are those of the source. The calls are words filed in the database; no cut-off is given here.

One may read the IC50 as the point on the concentration scale where inhibition reaches its midpoint. The low end stands for greater potency, the high end for weaker potency. In data set [1], `O=C1C=C(OCc2ccccc2)C(=O)c2ccccc21` had an IC50 of 6.83 µM. Further, the Activity in the data set on Mus musculus [2] came out at 38.3 U/L; with Mus musculus [3] it was 26.48 g; with Mus musculus [4] it was 9.59 million/mm3; in the data set on Mus musculus [5] it was 0.16 mg/dL; in the data set on Mus musculus [6], 2.43 mg/mL. Also, in the data set with FaDu, the outcome was Active.
